Reference: paper PMC9861623, “New Ferulic Acid and Amino Acid Derivatives with Increased Cosmeceutical and Pharmaceutical Potential” (Pharmaceutics, 2022)
“And” between values parts separate entries of the source, which are not always exact repeats. Equal entries are not always repeated. Where two headings read alike, the source gives them in different places.

Experiments:
[1] = DPPH antioxidant activity of solution obtained after skin extraction; design: species or system pig; settings: after 24 h penetration, listed as FA
Experimental: (§1) To determine the antioxidant capacity of ferulic acid and its derivatives the DPPH method was used. The analyses were performed using the Hitachi UV-Vis Spectrophotometer U-5100 at the wavelength λ = 517 nm. Trolox (6-hydroxy-2,5,7,8-tetramethylchroman-2-carboxylic acid) was used as a reference substance. The antioxidant activity was expressed as %RSA and mmol Trolox dm^−3. […]. Blank samples without antioxidant were prepared in the same way. The tubes were wrapped in aluminum foil and were sealed with a stopper and then incubated for 10 min at room temperature. After this time, spectrophotometric measurements were carried out in triplicate. For determination of antioxidant activity of the acceptor fluid after 24 h of permeation and solutions obtained by extraction of the skin obtained after penetration study, 0.15 mL samples of each solutions were separately added to 2.85 mL of DPPH solution and spectrophotometric measurements were performed. The antioxidant activity was expressed as mmol Trolox·dm^−3.
The accumulation of the FA and its derivatives in the skin after 24 h permeation process through the skin were determined using a modification of the methods described by Janus et al. and Taokaew et al.. After 24 h of permeation experiment, the skin samples were removed from the Franz diffusion cell, washed three times with 0.5% sodium lauryl sulfate solution and dried at room temperature. Next, after cutting out the diffusion area of each skin sample, the samples were immersed in 2 mL of absolute ethanol and continuously stirred at 300 rpm at room temperature for 24 h. The samples were then centrifuged, and clear solutions were collected and analyzed by HPLC method for the determination of FA and its derivatives. The accumulation of the active substance in the skin was calculated by dividing the amount of the drug remaining in the skin by a mass of skin sample and was expressed in mass active substance per mass of the skin (µg g^−1). For solution obtained after skin extraction, the antioxidant activity and total polyphenol content were also determined (as described in Section 2.5.1 and Section 2.5.2).

[2] = DPPH radical scavenging assay of the compounds
Experimental: as §1

3T3-L1 cells = tested on: 3T3-L1 cells; design: method as in PMID 29077251; settings: 3T3-L1, 500 μg mL^−1; cited from earlier work
L929 cells [3] = tested on: L929 cells; design: method as in PMID 24344870; settings: L929, 72 h, cited from earlier work
[4] = Thermogravimetric (TG) analysis, thermal stability; format: physicochemical
Experimental: Samples of 2–5 mg, loaded in aluminium crucibles, were heated from 30 °C to 600 °C at the heating rate of 10 °C·min^−1, in the air atmosphere (25 mL·min^−1) with nitrogen flow (10 mL·min^−1) as the purge gas.

L929 cells [5] = tested on: L929 cells; design: method as in PMID 32485864; settings: L929, 24 h, 2.5–40 mg L^−1, MTT assay; cited from earlier work
[6] = tested on: Murine fibroblasts (L929); assay: Cytotoxicity, PrestoBlue resazurin-based cell viability assay; settings: 0.03125–2.0 mM (any dosage), 24 h
Experimental: The cell biocompatibility was evaluated using a PrestoBlue HS Cell Viability Reagent (Thermo Fisher Scientific, MA USA) based on the reduction of the resazurin to highly fluorescent resorufin, of which the amount is directly correlated to the number of living cells. […] The cells without tested compounds were used as control. The interaction of tested compounds without cells and Prestoblue Reagent (blank wells) was excluded. After 24 h of treatment, optical microscopy imaging of L929 cells was performed using Smart Fluorescent Cell Analyzer Microscope JuLi (Seoul, Korea). Next, the PrestoBlue reagent (10 μL) was added to each well and incubated for 30 min. The fluorescence was measured using a spectrophotometric microplate reader (Infinite 200 Pro, Tecan, Männedorf, Switzerland) at ex/em: 560/594 nm. The readings were acquired from at least three independent experiments (each conducted in triplicate) and normalized to the control (100% viability).

[7] = DPPH antioxidant activity of acceptor fluid after 24 h permeation; design: species or system pig; settings: after 24 h penetration
Experimental: as §1
The permeation experiments were performed using Franz diffusion cells (Phoenix DB-6, ABL&E-JASCO, Wien, Austria). The diffusion was 1 cm^2. The volume of the acceptor chamber was 8 mL. This chamber was filled with PBS solution (pH 7.4). During experiment, a constant temperature of 37.0 ± 0.5 °C was maintained in each diffusion unit. The acceptor chamber content was stirred with a magnetic stirring bar at the same speed for all cells. The prepared pig skin was mounted on each donor chamber. As previously mentioned, only undamaged skin pieces with an even thickness were chosen for experiments. Thereafter, the hydrogel or emulsion vehicle/preparation in 1 g portion was put on the skin in donor cells. For comparison, 1 mL ethanolic solution containing either FA or its derivatives was applied to another donor chamber. The amount of the FA and its derivatives applied on the skin expressed as the mass of ferulic acid was 0.01 g and was the same for each carrier. The penetration experiments were carried out for 24 h. The samples were collected after 1 h, 2 h, 3 h, 4 h, 5 h, 6 h, 8 h, and 24 h. Aliquots of the acceptor fluid (0.5 mL) were withdrawn and to each acceptor chamber the same volume of fresh PBS solution was added. The FA and its derivatives’ concentrations in the acceptor fluid were measured by HPLC method (Section 2.6.2). The cumulative mass (µg·cm^−2) and penetration rate (µg·cm^−2·h^−1) were calculated. The acceptor fluid collected after 24 h of permeation was also measured for antioxidant activity and total polyphenol content (as described in Section 2.5.1 and Section 2.5.2).

cancer cells (HepG2) = tested on: cancer cells (HepG2); design: method as in PMID 29077251; settings: HepG2, 500 μg mL^−1; cited from earlier work
diabetic rats = tested on: diabetic rats; design: method as in doi:10.1016/j.jddst.2022.103621; settings: 50 mg kg^−1 body wt., orally for 8 weeks; cited from earlier work
[8] = n-octanol/water partition coefficient by shake flask method; format: physicochemical; settings: from log PO/W
Experimental: The n-octanol/water partition coefficient (log PO/W) was determined for ferulic acid and its derivatives by shake flask method. n-Octanol saturated with water and water saturated with n-octanol were prepared at 25 °C, 24 h prior to their use in the experiments. Then, a sample of 10 mg of compound was weighed with the accuracy of 0.01 mg in a 16 cm^3 screwed vial and dissolved in 5 cm^3 of n-octanol. Next, 5 cm^3 of water was added to the vial. The resulting two-phase mixture was kept in water bath shaker at 25 °C for 2 h and was strongly shaken to reach the partition equilibrium of the compound between the phases. Then the mixture was left unshaken for 30 min and 1.0 cm^3 of water phase was carefully taken out to centrifuge tube. The sample was next centrifuged for 10 min at 7500 rpm at 25 °C to ensure the most precise phase separation. The concentration of compound in water phase was then determined using HPLC method. The partition coefficient, log PO/W was calculated according to the formula: logPO/W=logC0V0−CWVW/CWVW where: C0—initial concentration of the compound in n-octanol, calculated based on the weighed mass of compound, mg·cm^−^3; V0—volume of n-octanol, cm^3; CW—concentration of the compound in water after partition equilibrium, mg·cm^−^3; VW—volume of water, cm^3.

[9] = molar ratio antioxidant:DPPH 0.1, 10 min, listed as FA
[10] = molar ratio antioxidant:DPPH 1.0, 10 min
[11] = molar ratio antioxidant:DPPH 2.0, 10 min, listed as FA

For `COc1cc(/C=C/C(=O)O)ccc1O` [Ferulic acid], the “DPPH antioxidant activity of the solution obtained after skin extraction” value ([1]; emulsion) was 0.300 ± 0.024 b mmol Trolox dm^−3, the “DPPH antioxidant activity of the solution obtained after skin extraction” value ([1]; ethanol solution) was 0.394 ± 0.004 mmol Trolox dm^−3 and 0.394 ± 0.004 b mmol Trolox dm^−3 and the “DPPH antioxidant activity of the solution obtained after skin extraction” value ([1]; hydrogel) was 0.381 ± 0.011 mmol Trolox dm^−3 and 0.381 ± 0.011 b mmol Trolox dm^−3. For the same compound, the “Antioxidant activity %RSA” value [2, 9] was 12.4 ± 0.001 %RSA and 12.4 ± 0.001 a %RSA, the “Antioxidant activity, Trolox equivalents” value [2, 9] was 0.049 ± 0.001 mmol Trolox dm^−3 and 0.049 ± 0.001 a mmol Trolox dm^−3 and the “Antioxidant activity %RSA” value [2, 10] was 73.2 ± 0.001 b %RSA. For the same compound, the “Antioxidant activity, Trolox equivalents” value [2, 10] was 0.635 ± 0.001 b mmol Trolox dm^−3, the “Antioxidant activity %RSA” value [2, 11] was 86.5 ± 0.001 %RSA and 86.5 ± 0.001 b %RSA and the “Antioxidant activity, Trolox equivalents” value [2, 11] was 0.763 ± 0.001 mmol Trolox dm^−3 and 0.763 ± 0.001 b mmol Trolox dm^−3. The “toxicity on normal cells” value (3T3-L1 cells) was “did not cause any toxicity”, the cell viability (L929 cells [3]; 500 μg mL^−1 (2.57 mM)) was 67% and the cell viability (L929 cells [3]; 1000 μg mL^−1 (5.15 mM)) was 28%. For the same compound, the “Td onset, the onset of decomposition” value ([4]; TG, air atmosphere, 10 °C·min^−1) was 217.0 °C, the “Td max, temperature of the fastest mass loss of the sample” value ([4]; TG/DTG, air atmosphere, 10 °C·min^−1) was 251.2 °C and the “Temperature range of decomposition (main weight loss)” value ([4]; according to the DTG curve) was 175–300 °C. For the same compound, the “effect on cell viability/proliferation” value (L929 cells [5]) was “no effect on cell viability/proliferation”, the “Difference in L929 viability between control and treated cells” value [6] was “No statistically significant differences in viability” and the “DPPH antioxidant activity of the acceptor fluid” value ([7]; emulsion) was 0.057 ± 0.004 a mmol Trolox dm^−3. The “DPPH antioxidant activity of the acceptor fluid” value ([7]; ethanol solution, listed as FA) was 0.079 ± 0.010 mmol Trolox dm^−3 and 0.079 ± 0.010 a mmol Trolox dm^−3, the “DPPH antioxidant activity of the acceptor fluid” value ([7]; hydrogel) was 0.067 ± 0.004 a mmol Trolox dm^−3 and the “viability of cancer cells” value (cancer cells (HepG2)) was “significantly decreased the viability”. For the same compound, the “effect in diabetic rats” value (diabetic rats) was “markedly ameliorated kidney injury, renal cell apoptosis, inflammation, and defective autophagy in the kidneys” and the “Share of compound partitioned to n-octanol” value [8] was ~98%.
